Laboratory results: patent US20230085307A1, “PYRIDAZINONE COMPOUND AND HERBICIDE” (NISSAN CHEMICAL CORPORATION, priority 2019, published 2023)

Assays:
barnyard grass [1] = assay: Test Example 4: herbicidal effect by soil treatment (Table 19, symbol H); assay type: in vivo, barnyard grass (Echinochloa crus-galli); settings: AAH 320 g/ha
Method in brief: (§1)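 Soil-surface application: an emulsion agent diluted with water to the predetermined dose is sprayed uniformly over seeds lying under roughly 1.5 cm of sterilized diluvial soil. Boxes stay in a greenhouse at 25° C. to 30° C. Three weeks later, each species is graded on previously defined criteria.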

lambsquarters [2] = assay: Test Example 4: herbicidal effect by soil treatment (Table 19, symbol O); assay type: in vivo, lambsquarters (Chenopodium album); settings: AAH 320 g/ha
Method in brief: as §1

wild oat [3] = assay: Test Example 5: herbicidal effect by foliage application, plastic box (Table 20, symbol I); assay type: in vivo, wild oat (Avena fatua); settings: foliage application, AAH 320 g/ha, three weeks after application
Method in brief: (§2)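 Sow seeds spot-wise in sterilized diluvial soil; cover with ~1.5 cm soil. Grow 14 days in greenhouse, 25° C. to 30° C. Spray foliage with emulsion diluted to predetermined amount. Rate effect after 3 weeks.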

Italian ryegrass [4] = assay: Test Example 5: herbicidal effect by foliage application, plastic box (Table 20, symbol K); assay type: in vivo, Italian ryegrass (Lolium multiflorum); settings: foliage application, AAH 320 g/ha, three weeks after application
Method in brief: as §2

redroot pigweed [5] = assay: Test Example 5: herbicidal effect by foliage application, plastic box (Table 20, symbol N); assay type: in vivo, redroot pigweed (Amaranthus retroflexus); settings: foliage application, AAH 320 g/ha, three weeks after application
Method in brief: as §2

persian speedwell [6] = assay: Test Example 4: herbicidal effect by soil treatment (Table 19, symbol R); assay type: in vivo, Persian speedwell (Veronica persica); settings: AAH 320 g/ha
Method in brief: as §1

redroot pigweed [7] = assay: Test Example 4: herbicidal effect by soil treatment (Table 19, symbol N); assay type: in vivo, redroot pigweed (Amaranthus retroflexus); settings: AAH 320 g/ha
Method in brief: as §1

rice flat sedge = assay: Test Example 3: herbicidal effect by foliage application, Wagner pot (Table 18, symbol E); assay type: in vivo, rice flat sedge (Cyperus iria); settings: 320 g/ha
Method in brief: (§3)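 Plants were sown in alluvial soil held under 0.1–0.5 cm standing water and grown 14 days in a greenhouse at 25–30 °C. An emulsifiable formulation, water-diluted to the set dose, was then sprayed onto the foliage, and effects were scored three weeks later using previously defined criteria.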

green foxtail [8] = assay: Test Example 4: herbicidal effect by soil treatment (Table 19, symbol G); assay type: in vivo, green foxtail (Setaria viridis); settings: AAH 320 g/ha
Method in brief: as §1

windgrass [9] = assay: Test Example 5: herbicidal effect by foliage application, plastic box (Table 20, symbol L); assay type: in vivo, windgrass (Apera spica-venti); settings: foliage application, AAH 320 g/ha, three weeks after application
Method in brief: as §2

blackgrass [10] = assay: Test Example 5: herbicidal effect by foliage application, plastic box (Table 20, symbol J); assay type: in vivo, blackgrass (Alopecurus myosuroides); settings: foliage application, AAH 320 g/ha, three weeks after application
Method in brief: as §2

green foxtail [11] = assay: Test Example 5: herbicidal effect by foliage application, plastic box (Table 20, symbol G); assay type: in vivo, green foxtail (Setaria viridis); settings: foliage application, AAH 320 g/ha, three weeks after application
Method in brief: as §2

lambsquarters [12] = assay: Test Example 5: herbicidal effect by foliage application, plastic box (Table 20, symbol O); assay type: in vivo, lambsquarters (Chenopodium album); settings: foliage application, AAH 320 g/ha, three weeks after application
Method in brief: as §2

late watergrass = assay: Test Example 1: herbicidal activity, application before weed generation under submerged conditions (Table 16, symbol A); assay type: in vivo, late watergrass (Echinochloa oryzicola); settings: 320 g/ha applied herbicide
Method in brief: (§4)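 Alluvial soil was flooded to 4 cm depth, weed seeds were sown mixed and 2.5-leaf rice seedlings were transplanted. On sowing day, the compound's emulsion, diluted in water to a set dose, was applied to the water surface. Plants grew at 25–30 °C and were scored 0–5 after three weeks.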

southern crabgrass [13] = assay: Test Example 5: herbicidal effect by foliage application, plastic box (Table 20, symbol F); assay type: in vivo, southern crabgrass (Digitaria ciliaris); settings: foliage application, AAH 320 g/ha, three weeks after application
Method in brief: as §2

Japanese bulrush = assay: Test Example 1: herbicidal activity, application before weed generation under submerged conditions (Table 16, symbol B); assay type: in vivo, Japanese bulrush (Schoenoplectus juncoides); settings: 320 g/ha applied herbicide
Method in brief: as §4

persian speedwell [14] = assay: Test Example 5: herbicidal effect by foliage application, plastic box (Table 20, symbol R); assay type: in vivo, Persian speedwell (Veronica persica); settings: foliage application, AAH 320 g/ha, three weeks after application
Method in brief: as §2

chickweed [15] = assay: Test Example 5: herbicidal effect by foliage application, plastic box (Table 20, symbol P); assay type: in vivo, common chickweed (Stellaria media); settings: foliage application, AAH 320 g/ha, three weeks after application
Method in brief: as §2

barnyard grass [16] = assay: Test Example 3: herbicidal effect by foliage application, Wagner pot (Table 18, symbol H); assay type: in vivo, barnyard grass (Echinochloa crus-galli); settings: 320 g/ha
Method in brief: as §3

velvetleaf [17] = assay: Test Example 5: herbicidal effect by foliage application, plastic box (Table 20, symbol M); assay type: in vivo, velvetleaf (Abutilon theophrasti); settings: foliage application, AAH 320 g/ha, three weeks after application
Method in brief: as §2

blackgrass [18] = assay: Test Example 4: herbicidal effect by soil treatment (Table 19, symbol J); assay type: in vivo, blackgrass (Alopecurus myosuroides); settings: AAH 320 g/ha
Method in brief: as §1

windgrass [19] = assay: Test Example 4: herbicidal effect by soil treatment (Table 19, symbol L); assay type: in vivo, windgrass (Apera spica-venti); settings: AAH 320 g/ha
Method in brief: as §1

southern crabgrass [20] = assay: Test Example 4: herbicidal effect by soil treatment (Table 19, symbol F); assay type: in vivo, southern crabgrass (Digitaria ciliaris); settings: AAH 320 g/ha
Method in brief: as §1

chickweed [21] = assay: Test Example 4: herbicidal effect by soil treatment (Table 19, symbol P); assay type: in vivo, common chickweed (Stellaria media); settings: AAH 320 g/ha
Method in brief: as §1

barnyard grass [22] = assay: Test Example 5: herbicidal effect by foliage application, plastic box (Table 20, symbol H); assay type: in vivo, barnyard grass (Echinochloa crus-galli); settings: foliage application, AAH 320 g/ha, three weeks after application
Method in brief: as §2

oval-leafed pondweed = assay: Test Example 1: herbicidal activity, application before weed generation under submerged conditions (Table 16, symbol C); assay type: in vivo, oval-leafed pondweed (Monochoria vaginalis); settings: 320 g/ha applied herbicide
Method in brief: as §4

Chinese sprangletop = assay: Test Example 3: herbicidal effect by foliage application, Wagner pot (Table 18, symbol D); assay type: in vivo, chinese sprangletop (Leptochloa chinensis); settings: 320 g/ha
Method in brief: as §3

wild oat [23] = assay: Test Example 4: herbicidal effect by soil treatment (Table 19, symbol I); assay type: in vivo, wild oat (Avena fatua); settings: AAH 320 g/ha
Method in brief: as §1

velvetleaf [24] = assay: Test Example 4: herbicidal effect by soil treatment (Table 19, symbol M); assay type: in vivo, velvetleaf (Abutilon theophrasti); settings: AAH 320 g/ha
Method in brief: as §1

Italian ryegrass [25] = assay: Test Example 4: herbicidal effect by soil treatment (Table 19, symbol K); assay type: in vivo, Italian ryegrass (Lolium multiflorum); settings: AAH 320 g/ha
Method in brief: as §1

SMILES: Cc1nn(C)c(=O)c(-c2c(-c3ccc(C(C)C)cc3)sc3ccccc23)c1O [1-125]
- H: barnyard grass, herbicidal effect rating (barnyard grass [1]): 3 (Herbicidal rate of 40% or more and less than 70%)
- O: lambsquarters, herbicidal effect rating (lambsquarters [2]): 5 (Herbicidal rate of 90% or more (almost completely withered))
- I: wild oat, herbicidal effect (wild oat [3]): 0 (Herbicidal rate of 5% or less (almost no effect))
- K: Italian ryegrass, herbicidal effect (Italian ryegrass [4]): 5 (Herbicidal rate of 90% or more (almost completely withered))
- N: redroot pigweed, herbicidal effect (redroot pigweed [5]): 5 (Herbicidal rate of 90% or more (almost completely withered))
- R: persian speedwell, herbicidal effect rating (persian speedwell [6]): 5 (Herbicidal rate of 90% or more (almost completely withered))
- N: redroot pigweed, herbicidal effect rating (redroot pigweed [7]): 5 (Herbicidal rate of 90% or more (almost completely withered))
- herbicidal effect on E (rice flat sedge), rating 0-5 (rice flat sedge): 5 (Herbicidal rate of 90% or more (almost completely withered))
- G: green foxtail, herbicidal effect rating (green foxtail [8]): 3 (Herbicidal rate of 40% or more and less than 70%)
- L: windgrass, herbicidal effect (windgrass [9]): 5 (Herbicidal rate of 90% or more (almost completely withered))
- J: blackgrass, herbicidal effect (blackgrass [10]): 2 (Herbicidal rate of 20% or more and less than 40%)
- G: green foxtail, herbicidal effect (green foxtail [11]): 5 (Herbicidal rate of 90% or more (almost completely withered))
- O: lambsquarters, herbicidal effect (lambsquarters [12]): 5 (Herbicidal rate of 90% or more (almost completely withered))
- Herbicidal effect on A: late watergrass (grade 0-5) (late watergrass): 3 (Herbicidal rate of 40% or more and less than 70%)
- F: southern crabgrass, herbicidal effect (southern crabgrass [13]): 3 (Herbicidal rate of 40% or more and less than 70%)
- Herbicidal effect on B: Japanese bulrush (grade 0-5) (Japanese bulrush): 0 (Herbicidal rate of 5% or less (almost no effect))
- R: persian speedwell, herbicidal effect (persian speedwell [14]): 5 (Herbicidal rate of 90% or more (almost completely withered))
- P: chickweed, herbicidal effect (chickweed [15]): 5 (Herbicidal rate of 90% or more (almost completely withered))
- herbicidal effect on H (barnyard grass), rating 0-5 (barnyard grass [16]): 5 (Herbicidal rate of 90% or more (almost completely withered))
- M: velvetleaf, herbicidal effect (velvetleaf [17]): 5 (Herbicidal rate of 90% or more (almost completely withered))
- J: blackgrass, herbicidal effect rating (blackgrass [18]): 0 (Herbicidal rate of 5% or less (almost no effect))
- L: windgrass, herbicidal effect rating (windgrass [19]): 0 (Herbicidal rate of 5% or less (almost no effect))
- F: southern crabgrass, herbicidal effect rating (southern crabgrass [20]): 1 (Herbicidal rate of 5% or more and less than 20%)
- P: chickweed, herbicidal effect rating (chickweed [21]): 1 (Herbicidal rate of 5% or more and less than 20%)
- H: barnyard grass, herbicidal effect (barnyard grass [22]): 5 (Herbicidal rate of 90% or more (almost completely withered))
- Herbicidal effect on C: oval-leafed pondweed (grade 0-5) (oval-leafed pondweed): 0 (Herbicidal rate of 5% or less (almost no effect))
- herbicidal effect on D (Chinese sprangletop), rating 0-5 (Chinese sprangletop): 4 (Herbicidal rate of 70% or more and less than 90%)
- I: wild oat, herbicidal effect rating (wild oat [23]): 0 (Herbicidal rate of 5% or less (almost no effect))
- M: velvetleaf, herbicidal effect rating (velvetleaf [24]): 1 (Herbicidal rate of 5% or more and less than 20%)
- K: Italian ryegrass, herbicidal effect rating (Italian ryegrass [25]): 5 (Herbicidal rate of 90% or more (almost completely withered))
